Measured values: US20200345746A1, “Oxazine Derivative for Use in the Prevention of Alzheimer's Disease in at Risk Patents” (Novartis AG, priority 2016, published 2020)

How the values were obtained:
sAPPβ (Swe) = test: Triton TX-100 soluble sAPPβ (Swe) in APP23 mouse brain; assay type: in vivo; settings: APP23 mice
Experimental: Frozen mouse forebrains were weighed and homogenized in 9 volumes (w/v) of ice-cold TBS-Complete (20 mM Tris-HCl pH 7.4, 137 mM NaCl, 1× Complete [Protease Inhibitor Cocktail Tablets: 1 836 145, Roche Diagnostics GmbH, Penzberg, Germany]) by sonication (90% duty cycle, output control 5, 40-55 pulses, [Sonifier 450, Branson]). After homogenization several 50 μl aliquots were prepared for analysis and were stored at −80° C.
Brain homogenates were extracted with 1% Triton X-100 in buffer and the resulting supernatant was considered to represent soluble forms of APP metabolites. In addition to Aβ40 and 42, we determined the N-terminal APP fragments sAPPα (direct cleavage product of α-secretase) and sAPPβ (Swe) (direct product of BACE1 cleavage). […] Since no change in the APP expression and Aβ generation is known to happen during this age, it is assumed that the increased values in the vehicle group (18-20 mo old) arise from “leakage” out of the Aβ deposits (which increase several fold, see below).

IBA1 positive microglia = IBA1 positive microglia in APP23 mice; assay type: in vivo, mouse; settings: for Distal IBA1+ area / Non-plaque-associated IBA1+ area* / Plaque-associated IBA1+ area / Proximal IBA1+ area / Total IBA1+ area: normalized by total area, mean + SEM
Experimental: Amyloid plaques were stained using the same antibody and the microglia cells were detected using a rabbit anti-IBA1 antibody (reference 019-19741) from Wako Chemicals GmbH (Neuss, Germany) and diluted at 1/200 in antibody diluent. The staining protocol was exactly similar to the protocol for amyloid-beta plaques and astrocytes. The slides were scanned with the same settings.
For the beta-amyloid plaque and neuroinflammation analysis, the following sequence of steps was performed: • Slides were scanned with Hamamatsu Nanozoomer at 40× magnification. For each fluorescence labelling (DAPI, FITC and TRITC), a separate image was created • Manually outline ROIs (regions of interest) for defining cortex in brain sections for Aβ plaque assessment on the green FITC channel image, then use the resulting outline also for the other two channel images (copy resulting xml files) • Run the in-house developed ImageScope (V12.1.0.5029, Aperio Inc., USA) plug-in for creation and export of *.tif image tiles (at 10× magnification) for each of the 3 fluorescence channels
Image Batch Processing: • Obtain the combined true color image (DAPI, FITC, TRITC) for each section through accessing each individual fluorescence channel image • Segmentation of valid sample (within outlined ROI) from black unstained background • Apply adaptive thresholding technique for segmentation of objects in green channel image
(FITC-labeled Aβ plaques) • Separation of touching objects for correct subsequent individual object analysis after elimination of too small debris showing signal in the green (FITC) channel • Segmentation of TRITC-labeled objects in red channel (specific for GFAP or Iba1 staining indicating astrocytes or microglia) through morphological tophat transformation and thresholding • Feature based object classification
Computation of several morphometric and densitometric features for valid plaques • Number of plaques • “Specific optical density” which has been described to reflect the amount of protein (antigen) concentration, based on measuring and using the staining intensity of an appropriate antibody in a non-linear way (Rahier et al., 1989; Ruifrok et al., 2001) • assessment of “plaque-associated GFAP or Iba1” based on the ratio of TRITC+ signal vs plaque area, “proximal GFAP or Iba1” based on ratio of TRITC+ signal within dilation ring around plaque

C[C@@]1(c2nc(NC(=O)c3ncc(C(F)(F)F)cc3Cl)ccc2F)CO[C@@](C)(C(F)(F)F)C(N)=N1 [Compound 1, N-(6-((3R,6R)-5-amino-3,6-dimethyl-6-(trifluoromethyl)-3,6-dihydro-2H-1,4-oxazin-3-yl)-5-fluoropyridin-2-yl)-3-chloro-5-(trifluoromethyl)picolinamide]
sAPPβ (Swedish) change vs vehicle (sAPPβ (Swe); 0.03 g/kg vs vehicle): −29.0% | sAPPβ (Swedish) change vs vehicle (sAPPβ (Swe); 0.3 g/kg vs vehicle): −77.7% | reduction of soluble APP (Swe) (sAPPβ (Swe); low dose 0.03 g/kg food): 29% | Distal IBA1+ area (IBA1 positive microglia; APP23, 0.03 g/kg food): 2.74 ± 0.42 | Non-plaque-associated IBA1+ area* (IBA1 positive microglia; APP23, 0.03 g/kg food): 3.98 ± 0.54 | Plaque-associated IBA1+ area (IBA1 positive microglia; APP23, 0.03 g/kg food): 1.79 ± 0.51 | Proximal IBA1+ area (IBA1 positive microglia; APP23, 0.03 g/kg food): 1.23 ± 0.22 | Total IBA1+ area (IBA1 positive microglia; APP23, 0.03 g/kg food): 5.76 ± 0.83 | Distal IBA1+ area, change vs vehicle (IBA1 positive microglia; APP23, 0.03 g/kg vs vehicle): −28.9% | Non-plaque-associated IBA1+ area*, change vs vehicle (IBA1 positive microglia; APP23, 0.03 g/kg vs vehicle): −39.2% | Plaque-associated IBA1+ area, change vs vehicle (IBA1 positive microglia; APP23, 0.03 g/kg vs vehicle): −40.5% | Proximal IBA1+ area, change vs vehicle (IBA1 positive microglia; APP23, 0.03 g/kg vs vehicle): −47.4% | Total IBA1+ area, change vs vehicle (IBA1 positive microglia; APP23, 0.03 g/kg vs vehicle): −37.4% | Distal IBA1+ area (IBA1 positive microglia; APP23, 0.3 g/kg food): 5.05 ± 0.98 | Non-plaque-associated IBA1+ area* (IBA1 positive microglia; APP23, 0.3 g/kg food): 5.70 ± 1.00 | Plaque-associated IBA1+ area (IBA1 positive microglia; APP23, 0.3 g/kg food): 0.88 ± 0.19 | Proximal IBA1+ area (IBA1 positive microglia; APP23, 0.3 g/kg food): 0.65 ± 0.05 | Total IBA1+ area (IBA1 positive microglia; APP23, 0.3 g/kg food): 6.31 ± 0.92 | Distal IBA1+ area, change vs vehicle (IBA1 positive microglia; APP23, 0.3 g/kg vs vehicle): +30.7% | Non-plaque-associated IBA1+ area*, change vs vehicle (IBA1 positive microglia; APP23, 0.3 g/kg vs vehicle): −8.2% | Plaque-associated IBA1+ area, change vs vehicle (IBA1 positive microglia; APP23, 0.3 g/kg vs vehicle): −70.6% | Proximal IBA1+ area, change vs vehicle (IBA1 positive microglia; APP23, 0.3 g/kg vs vehicle): −72.2% | Total IBA1+ area, change vs vehicle (IBA1 positive microglia; APP23, 0.3 g/kg vs vehicle): −28.5%
